Experimental data from patent US6251894A, “1-(1,2-disubstituted piperidinyl)-4 (fused imidazole)-piperidine derivatives” (Janssen Pharmaceuticals N.V., priority 1995, dated 2001).
Read-outs that look alike come from different tables or passages of the source.

Key:
[1] = tested on: Substance P Induced Relaxation of the Pig Coronary Arteries; assay: Antagonism of substance P induced relaxation of the pig coronary arteries; settings: 30 min incubation
Method: Antagonism of Substance P Induced Relaxation of the Pig Coronary Arteries
Segments of coronary arteries taken from pigs (killed by injection of an overdose of sodium pentobarbital) were inverted and mounted for recording of isometric tension in organ baths (volume 20 ml) with the endothelium at the outside. The preparations were bathed in Krebs-Henseleit solution. The solution was kept at 37° C. and gassed with a mixture of O2 /CO2 (95/5). After stabilisation of the preparations, prostaglandin F2α (10^-5 M) was administered to induce a contraction. This was repeated until contractile responses became stable. Then prostaglandin F2α was again administered and substance P (3×10^-10 M and 10^-9 M cumulatively) was added. Substance P induced endothelium dependent relaxations. After washing away the agonists, a known concentration of a compound of formula (I) was added. After an incubation period of 30 minutes, prostaglandin F2α (10^-5 M) and the same concentrations of substance P as described above were again administered in the presence of the compound to be tested.

[2] = tested on: Substance P Induced Plasma Extravasation; assay: Antagonism of substance P induced plasma extravasation in guinea-pigs; type: in vivo, guinea-pig; settings: Cavia porcellus, 1 hour prior to substance P
Method: Antagonism of Substance P Induced Plasma Extravasation in Guinea-pigs
Plasma travasation was induced by injection of substance P (2 mg/kg) in the femoral artery of female guinea-pigs. Evans Blue dye (30 mg/kg) was injected simultaneously. The test compound or solvent was administered subcutaneous (s.c.) or orally (p.o.) 1 hour prior to substance P injection. 10 minutes after challenge, the animals were checked for blue colouring (a direct measure for plasma extravasation) of the nose, the forepaws, and the conjunctiva. 30 minutes after challenge, the animals were sacrificed by CO2 gas inhalation and checked for blue colouring of the trachea and the urinary bladder. […]

[3] = test compound concentration 3 × 10^-9 (unit not given)
[4] = sc, 10 min, s.c., conjunctiva, read-out: lowest active dose (LAD), conjunctiva
[5] = sc, 10 min, s.c., forepaws, read-out: lowest active dose (LAD), forepaws
[6] = sc, 10 min, s.c., nose, read-out: lowest active dose (LAD), nose
[7] = sc, 0.5 h, s.c., trachea, read-out: lowest active dose (LAD), trachea
[8] = sc, 0.5 h, s.c., urinary bladder, read-out: lowest active dose (LAD), urinary bladder
[9] = po, 10 min, p.o., conjunctiva, read-out: lowest active dose (LAD), conjunctiva
[10] = po, 10 min, p.o., forepaws, read-out: lowest active dose (LAD), forepaws
[11] = po, 10 min, p.o., nose, read-out: lowest active dose (LAD), nose
[12] = po, 0.5 h, p.o., trachea, read-out: lowest active dose (LAD), trachea
[13] = po, 0.5 h, p.o., urinary bladder, read-out: lowest active dose (LAD), urinary bladder
[14] = test compound concentration 3 × 10^-8 (unit not given)

SMILES | % inhibition of the response to 10^-9 M substance P [1, 3] [%] | minimal effective dose [2, 4] [mg/kg] | minimal effective dose [2, 5] [mg/kg] | minimal effective dose [2, 6] [mg/kg] | minimal effective dose [2, 7] [mg/kg] | minimal effective dose [2, 8] [mg/kg] | minimal effective dose [2, 9] [mg/kg] | minimal effective dose [2, 10] [mg/kg] | minimal effective dose [2, 11] [mg/kg] | minimal effective dose [2, 12] [mg/kg] | minimal effective dose [2, 13] [mg/kg] | % inhibition of the response to 10^-9 M substance P [1, 14] [%]
Cc1cnc2n1CCc1ccccc1C2=C1CCN([C@H]2CCN(C(=O)c3cc(C(F)(F)F)cc(C(F)(F)F)c3)[C@@H](Cc3ccccc3)C2)CC1 (relative stereo) [Compound 53] | 44.4 | 10 | 10 | 10 | 10 | 10 | – | – | – | – | – | –
Cc1cc(C)cc(C(=O)N2CC[C@H](N3CCC(=C4c5ccccc5CCn5ccnc54)CC3)C[C@H]2Cc2ccccc2)c1 (relative stereo) [Compound 41] | 40.6 | 2.5 | 10 | 10 | 10 | 10 | – | – | – | – | – | –
Cc1cc(C)cc(C(=O)N2CC[C@@H](N3CCC(=C4c5ccn(C)c5CCn5ccnc54)CC3)C[C@@H]2Cc2ccccc2)c1 (relative stereo) [Compound 34] | 43.5 | 2.5 | 0.63 | 0.63 | 0.63 | 0.63 | – | – | – | – | – | –
Cc1cc(C)cc(C(=O)N2CC[C@H](N3CCC(=C4c5ccsc5C(=O)Cn5ccnc54)CC3)C[C@@H]2Cc2ccccc2)c1 (relative stereo) [Compound 111] | 22.6 | 10 | 10 | 10 | 10 | 10 | – | – | – | – | – | –
O=C(c1cc(C(F)(F)F)cc(C(F)(F)F)c1)N1CC[C@@H](N2CCC(C3c4ccccc4Cn4c3nc3ccccc34)CC2)C[C@H]1Cc1ccccc1 (mixture of isomers) [Compound 14, (±)-cis-1-[3,5-bis(trifluoromethyl)benzoyl]-4-[4-(6,11-dihydrobenzimidazo[1,2-b]isoquinolin-6-yl)-1-piperidinyl]-2-phenylmethyl)piperidine] | 56.6 | – | – | – | – | – | 10 | 10 | 10 | 10 | 10 | –
O=Cc1cnc2n1CCc1ccccc1C2=C1CCN([C@@H]2CCN(C(=O)c3cc(C(F)(F)F)cc(C(F)(F)F)c3)[C@@H](Cc3ccccc3)C2)CC1 (relative stereo) [Compound 16] | 98.9 | 2.5 | 2.5 | 2.5 | 10 | 10 | – | – | – | – | – | –
O=C(c1cc(C(F)(F)F)cc(C(F)(F)F)c1)N1CC[C@H](N2CCC(=C3c4ccccc4OCn4ccnc43)CC2)C[C@@H]1Cc1ccccc1 (relative stereo) [Compound 113] | 87.9 | 10 | 10 | 10 | 10 | 10 | – | – | – | – | – | –
Cc1cnc2n1CCc1ccccc1C2=C1CCN([C@H]2CCN(C(=O)c3cc(C(F)(F)F)cc(C(F)(F)F)c3)[C@H](Cc3ccccc3)C2)CC1 (relative stereo) [Compound 54] | 69.8 | 2.5 | 2.5 | 2.5 | 2.5 | 2.5 | – | – | – | – | – | –
Cc1cc(C)cc(C(=O)N2CC[C@@H](N3CCC(=C4c5ccccc5CCn5c(CO)cnc54)CC3)C[C@@H]2Cc2ccccc2)c1 (relative stereo) [Compound 20] | 9.5 | 2.5 | 2.5 | 2.5 | 2.5 | 2.5 | – | – | – | – | – | –
Cc1cc(C)cc(C(=O)N2CC[C@H](N3CCC(=C4c5ccccc5CCn5ccnc54)CC3)C[C@@H]2Cc2ccccc2)c1 (racemic) [Compound 1, (±)-cis-4-[4-(5,6-dihydro-11H-imidazo [2,1-b][3]benzazepin-11-ylidene)-1-piperidinyl]-1-(3,5-dimethylbenzoyl)-2-(phenylmethyl)piperidine] | – | 10 | 10 | 10 | 10 | 10 | – | – | – | – | – | 52.3
Cn1ccc2c1CCn1ccnc1C2=C1CCN([C@H]2CCN(C(=O)c3cc(C(F)(F)F)cc(C(F)(F)F)c3)[C@@H](Cc3ccccc3)C2)CC1 (racemic) [Compound 3, (±)-cis-1-[3,5-bis(trifluoromethyl)benzoyl]-4-[4-(5,6,7,10-tetrahydro-7-methylimidazo[1,2-a]-pyrrolo[3,2-d]azepin-10-ylidene)-1-piperidinyl]-2-(phenylmethyl)piperidine] | 37.3 | 2.5 | 2.5 | 2.5 | 10 | 10 | – | – | – | – | – | –
Cc1cc(C)cc(C(=O)N2CC[C@@H](N3CCC(=C4c5ccccc5CCn5c(C=O)cnc54)CC3)C[C@@H]2Cc2ccccc2)c1 (relative stereo) [Compound 25] | 100.0 | 2.5 | 2.5 | 2.5 | 10 | 10 | – | – | – | – | – | –
Cc1cc(C)cc(C(=O)N2CC[C@@H](N3CCC(C4c5ccccc5CCn5ccnc54)CC3)C[C@H]2Cc2ccccc2)c1 (stereo partly drawn) [Compound 26] | 25.6 | 10 | 10 | 10 | 10 | 10 | – | – | – | – | – | –
O=C(c1cc(C(F)(F)F)cc(C(F)(F)F)c1)N1CC[C@H](N2CCC(=C3c4ccccc4CCn4c3nc3ccccc34)CC2)C[C@H]1Cc1ccccc1 (relative stereo) [Compound 72] | 97.4 | – | – | – | – | – | 10 | 10 | 10 | 10 | 10 | –
Cc1cc(C)cc(C(=O)N2CC[C@@H](N3CCC(C4c5ccccc5CCn5ccnc54)CC3)C[C@@H]2Cc2ccccc2)c1 (stereo partly drawn) [Compound 27] | 5.1 | 2.5 | 2.5 | 2.5 | 10 | 2.5 | – | – | – | – | – | –
O=C(c1cc(C(F)(F)F)cc(C(F)(F)F)c1)N1CC[C@@H](N2CCC(C3c4ccccc4Cn4c3nc3ccccc34)CC2)C[C@@H]1Cc1ccccc1 (mixture of isomers) [Compound 15, (±)-trans-1-[3,5-bis(trifluoromethyl)benzoyl]-4-[4-(6,11-dihydrobenzimidazo[1,2-b]isoquinolin-6-yl)-1-piperidinyl]-2-phenylmethyl)piperidine] | – | – | – | – | – | – | 10 | 10 | 10 | 10 | 10 | 95.4
O=C(c1cc(C(F)(F)F)cc(C(F)(F)F)c1)N1CC[C@H](N2CCC(=C3c4ccccc4CCn4c3nc(CO)c4CO)CC2)C[C@@H]1Cc1ccccc1 (relative stereo) [Compound 52] | 77.8 | 2.5 | 2.5 | 2.5 | 10 | 2.5 | – | – | – | – | – | –
O=Cc1cnc2n1CCc1ccccc1C2=C1CCN([C@H]2CCN(C(=O)c3cc(C(F)(F)F)cc(C(F)(F)F)c3)[C@@H](Cc3ccccc3)C2)CC1 (racemic) [Compound 11, (±)-cis-1-[3,5-bis(trifluoromethyl)benzoyl]-4-[4-(3-formyl-5,6-dihydro-11H-imidazo[2,1-b][3]benzazepin-11-ylidene)-1-piperidinyl]-2-(phenylmethyl)piperidine] | 96.1 | – | – | – | – | – | 10 | 10 | 10 | 10 | 10 | –
